PMC8156467, “Disruption of YY1-EZH2 Interaction Using Synthetic Peptides Inhibits Breast Cancer Development” (Cancers, 2021)

How the values were obtained:
[1] = target: His×6-YY1 (Homo sapiens, UniProt P25490); experiment: GST pull-down of His×6-YY1 by GST-EZH2 mutants; assay type: binding; settings: 1.0 µg His×6-YY1, 4 h
Text: (§1) HA-tagged expression vectors of wild-type (wt) and mutant YY1 were constructed by amplifying and subcloning the corresponding fragments of the YY1 coding region into the pcDNA3 vector. To generate EZH2 mutants, different regions of its coding sequence (1–251, 252–384, 385–618, 619–751, 385–465, 465–545, 545–618, 465–492, and 465–519) were amplified and subcloned into pGEX-4T-1 and pSL4-3×Flag plasmids to construct vectors expressing recombinant GST-EZH2 and 3×Flag-EZH2 mutants, respectively. To generate vectors expressing 3×Flag-YPB, -OPB, and -Cont (with a scrambled sequence of […]) peptides, their coding sequences were individually subcloned into a lentiviral vector pSL4 using the CMV promoter to drive the expression of 3×Flag-YPB-2A1-EGFP, 3×Flag-OPB-2A1-EGFP, and 3×Flag-Cont-2A1-EGFP. […] Two shRNAs against PTENP1 (shPTENP1-1 and shPTENP1-2, with target sequences of […] and […], respectively), and one control shRNA (with a scrambled target sequence of […]) driven by the U6 promoter were generated in a lentiviral vector with a puromycin selection marker as we previously described. In addition, we also generated lentiviruses expressing two shRNAs (shYY1-1 and shYY1-2, with target sequences of […] and […], respectively), and two EZH2 (shEZH2-1 and shEZH2-2, with target sequences of […] and […]-[…], respectively).
The GST fusion protein expressed in E. coli was lysed with the binding buffer (20 mM Tris⋅HCl, pH 7.5, 150 mM NaCl, 0.1% Nonidet P-40, 1 mM dithiothreitol, 10% glycerol, 1 mM EDTA, 2.5 mM MgCl2, and 1 µg/mL leupeptin) for 30 min at 4 °C. Glutathione-Sepharose beads (Thermo Fisher Scientific) were incubated with bacterial lysates containing expressed recombinant GST-EZH2 mutant proteins for 4 h at 4 °C. After extensive washing of the beads, 1.0 µg of purified His×6-YY1 was added, and the samples were incubated for another 4 h. The washed beads with bound proteins were resuspended in an SDS-containing sample buffer and analyzed by SDS-PAGE.

[2] = tested on: breast cancer cells (MCF-7, MDA-MB-231, MDA-MB-453); experiment: Annexin V-FITC/PI apoptosis, breast cancer cells together; assay type: cell-based; settings: peptides 30 μM (no FITC), tamoxifen 15 µM, 48 h; vs Cont
Method: The cells were collected by trypsinization and washed twice by ice-cold PBS, followed by Annexin V-FITC and propidium iodide (PI) staining for 10 min using the reagents in an Annexin V-FITC Apoptosis Detection Kit (Vazyme Biotech Co. Ltd., Nanjing, China). The ratios of apoptotic cells were evaluated using flow cytometry (AccuriC6, BD Biosciences, San Jose, CA, USA).

[3] = tested on: HA-YY1; experiment: Co-IP of Flag-EZH2 wt/mutants with HA-YY1; assay type: binding; settings: co-IP, Flag-tagged EZH2 and HA-YY1
Text: as §1
Immunoprecipitations were performed as described previously. Cells were harvested and lysed in cell lysis buffer (50 mM Tris⋅HCl, pH 7.5, 150 mM NaCl, 1% Nonidet P-40, 0.5% sodium deoxycholate, and 1% protease inhibitor cocktails, Sigma-Aldrich). […] In Western blot studies, protein concentrations of samples were determined using the Bradford protein method, and 20 μg of proteins for each sample were separated by SDS-PAGE followed by transfer to polyvinylidene difluoride (PVDF) membranes. […]
Figure 1 Identification of YY1 binding site on EZH2 protein. […] The samples were analyzed by Western blot using EZH2 and YY1 antibodies as indicated. […]

Sequence of His×6-YY1 (P25490 whole entry, the tested form may be a part): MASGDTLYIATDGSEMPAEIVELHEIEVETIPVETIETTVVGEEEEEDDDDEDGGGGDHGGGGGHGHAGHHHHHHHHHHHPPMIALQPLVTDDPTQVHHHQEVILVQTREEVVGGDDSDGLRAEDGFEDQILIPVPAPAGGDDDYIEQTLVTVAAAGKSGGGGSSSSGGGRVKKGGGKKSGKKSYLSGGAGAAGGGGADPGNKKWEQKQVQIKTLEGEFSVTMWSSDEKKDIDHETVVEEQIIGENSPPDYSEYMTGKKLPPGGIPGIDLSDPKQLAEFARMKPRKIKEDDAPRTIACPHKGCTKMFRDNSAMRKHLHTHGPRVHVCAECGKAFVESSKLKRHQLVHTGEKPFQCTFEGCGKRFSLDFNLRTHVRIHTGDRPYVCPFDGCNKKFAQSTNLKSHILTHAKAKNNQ

Row | interaction with His×6-YY1 in GST pull-down [1] | Molecule | interaction with HA-YY1 in co-IP [3] | further results
1 | could also pull down His×6-YY1 | GST-EZH2 (465–545): GST fusion of EZH2 residues 465–545 | – | –
2 | – | CC/C(=C(\c1ccccc1)c1ccc(OCCN(C)C)cc1)c1ccccc1 [tamoxifen] | – | pro-apoptotic portions of breast cancer cells [2]: could significantly increase the pro-apoptotic portions
3 | – | Flag-EZH2 wt: Flag-tagged wild-type EZH2 | could bring down HA-YY1 | –
4 | – | (385–618): Flag-tagged EZH2 region 385–618 | could bring down HA-YY1 | –
5 | – | EZH2 (465–545): Flag-tagged EZH2 mutant 465–545 | could interact with HA-YY1 | –
6 | could interact with His×6-YY1 | GST-EZH2 (465–519): GST fusion of EZH2 residues 465–519 | – | –
7 | could interact with His×6-YY1 | GST-EZH2 (385–618): GST fusion of EZH2 residues 385–618 | – | –
